Test results published in patent publication US12049486B2, “PAC1 receptor agonists (MAXCAPs) and uses thereof” (priority 2017, dated 2024).
Where no end group is shown, it is not given here.

Experiment: Hepatic fat / liver cirrhosis, NASH/NAFLD by H&E staining in DIO WT mice
Format: in vivo
Conditions: versus vehicle
Source text: We have shown that these novel MAXCAP compounds, that are PAC1 specific agonists, can potentially treat Nonalcoholic steatohepatitis (NASH), non-alcoholic […] (NAFLD) and liver fibrosis. We injected these MAXCAP compounds in DIO WT mice and measured hepatic fat in the liver (see, e.g., FIG. 5).

Pituitary Adenylate Cyclase Activating Polypeptide (HSDGIFTDSYSRYRKQMAVKKYLAAVLGKRYKQRVKNK; ends and bridges not checked; listed as Homo sapiens) [PACAP, native peptide]
liver cirrhosis and NASH/NAFLD: significant reduction in liver cirrhosis and NASH/NAFLD
